Numbers after ± are expanded uncertainties.
Test: wn = mass fraction of the nth substance listed
Conditions: Liquid, Vibrating tube method

CC(C)(N)CO [2-amino-2-methylpropan-1-ol] + O
mass density (333.05 K, 14990 kPa, w1 = 0.4002): 976.2 ± 0.9 kg/m3
mass density (333.05 K, 15984 kPa, w1 = 0.4002): 976.6 ± 0.9 kg/m3
mass density (333.05 K, 16990 kPa, w1 = 0.4002): 977 ± 0.9 kg/m3
mass density (333.05 K, 18003 kPa, w1 = 0.4002): 977.4 ± 0.9 kg/m3
mass density (333.05 K, 18986 kPa, w1 = 0.4002): 977.8 ± 0.9 kg/m3
mass density (333.05 K, 19988 kPa, w1 = 0.4002): 978.2 ± 0.9 kg/m3
mass density (333.05 K, 21502 kPa, w1 = 0.4002): 978.8 ± 0.9 kg/m3
mass density (342.91 K, 1020 kPa, w1 = 0.2821): 969 ± 0.6 kg/m3
mass density (342.91 K, 2011 kPa, w1 = 0.2821): 969.5 ± 0.6 kg/m3
mass density (342.91 K, 3009 kPa, w1 = 0.2821): 969.9 ± 0.6 kg/m3
mass density (342.91 K, 4010 kPa, w1 = 0.2821): 970.3 ± 0.6 kg/m3
mass density (342.91 K, 4994 kPa, w1 = 0.2821): 970.8 ± 0.6 kg/m3
mass density (342.91 K, 5994 kPa, w1 = 0.2821): 971.2 ± 0.6 kg/m3
mass density (342.91 K, 7035 kPa, w1 = 0.2821): 971.6 ± 0.6 kg/m3
mass density (342.91 K, 7995 kPa, w1 = 0.2821): 972 ± 0.6 kg/m3
mass density (342.91 K, 8990 kPa, w1 = 0.2821): 972.4 ± 0.6 kg/m3
mass density (342.91 K, 9998 kPa, w1 = 0.2821): 972.9 ± 0.6 kg/m3
mass density (342.91 K, 10992 kPa, w1 = 0.2821): 973.3 ± 0.6 kg/m3
mass density (342.91 K, 11994 kPa, w1 = 0.2821): 973.7 ± 0.6 kg/m3
mass density (342.91 K, 12992 kPa, w1 = 0.2821): 974.1 ± 0.6 kg/m3
mass density (342.91 K, 13990 kPa, w1 = 0.2821): 974.5 ± 0.6 kg/m3
mass density (342.91 K, 14992 kPa, w1 = 0.2821): 974.9 ± 0.6 kg/m3
mass density (342.91 K, 15993 kPa, w1 = 0.2821): 975.4 ± 0.6 kg/m3
mass density (342.91 K, 16987 kPa, w1 = 0.2821): 975.8 ± 0.6 kg/m3
mass density (342.91 K, 17985 kPa, w1 = 0.2821): 976.2 ± 0.6 kg/m3
mass density (342.91 K, 18987 kPa, w1 = 0.2821): 976.6 ± 0.6 kg/m3
mass density (342.91 K, 19984 kPa, w1 = 0.2821): 977 ± 0.6 kg/m3
mass density (342.91 K, 20986 kPa, w1 = 0.2821): 977.4 ± 0.6 kg/m3
mass density (342.92 K, 509 kPa, w1 = 0.1997): 971.6 ± 0.5 kg/m3
mass density (342.92 K, 1001 kPa, w1 = 0.1997): 971.8 ± 0.5 kg/m3
mass density (342.92 K, 1008 kPa, w1 = 0.4976): 953.4 ± 1.2 kg/m3
mass density (342.92 K, 2000 kPa, w1 = 0.1997): 972.2 ± 0.5 kg/m3
mass density (342.92 K, 2004 kPa, w1 = 0.4976): 953.8 ± 1.2 kg/m3
mass density (342.92 K, 3000 kPa, w1 = 0.1997): 972.7 ± 0.5 kg/m3
mass density (342.92 K, 3006 kPa, w1 = 0.4976): 954.3 ± 1.2 kg/m3
mass density (342.92 K, 4000 kPa, w1 = 0.1997): 973.1 ± 0.5 kg/m3
mass density (342.92 K, 4000 kPa, w1 = 0.4976): 954.8 ± 1.2 kg/m3
mass density (342.92 K, 4997 kPa, w1 = 0.4976): 955.3 ± 1.2 kg/m3
mass density (342.92 K, 5000 kPa, w1 = 0.1997): 973.6 ± 0.5 kg/m3
mass density (342.92 K, 5996 kPa, w1 = 0.4976): 955.7 ± 1.2 kg/m3
mass density (342.92 K, 6000 kPa, w1 = 0.1997): 974 ± 0.5 kg/m3
mass density (342.92 K, 6996 kPa, w1 = 0.4976): 956.2 ± 1.2 kg/m3
mass density (342.92 K, 7001 kPa, w1 = 0.1997): 974.4 ± 0.5 kg/m3
mass density (342.92 K, 7993 kPa, w1 = 0.4976): 956.7 ± 1.2 kg/m3
mass density (342.92 K, 8000 kPa, w1 = 0.1997): 974.8 ± 0.5 kg/m3
mass density (342.92 K, 8988 kPa, w1 = 0.4976): 957.2 ± 1.2 kg/m3
mass density (342.92 K, 9009 kPa, w1 = 0.1997): 975.2 ± 0.5 kg/m3
mass density (342.92 K, 9983 kPa, w1 = 0.4976): 957.6 ± 1.2 kg/m3
mass density (342.92 K, 10002 kPa, w1 = 0.1997): 975.6 ± 0.5 kg/m3
mass density (342.92 K, 10990 kPa, w1 = 0.4976): 958.1 ± 1.2 kg/m3
mass density (342.92 K, 11001 kPa, w1 = 0.1997): 976 ± 0.5 kg/m3
mass density (342.92 K, 12000 kPa, w1 = 0.1997): 976.5 ± 0.5 kg/m3
mass density (342.92 K, 12003 kPa, w1 = 0.4976): 958.5 ± 1.3 kg/m3
mass density (342.92 K, 12992 kPa, w1 = 0.4976): 958.9 ± 1.3 kg/m3
mass density (342.92 K, 13000 kPa, w1 = 0.1997): 976.9 ± 0.5 kg/m3
mass density (342.92 K, 13996 kPa, w1 = 0.4976): 959.4 ± 1.3 kg/m3
mass density (342.92 K, 14000 kPa, w1 = 0.1997): 977.3 ± 0.5 kg/m3
mass density (342.92 K, 14988 kPa, w1 = 0.4976): 959.9 ± 1.3 kg/m3
mass density (342.92 K, 15002 kPa, w1 = 0.1997): 977.7 ± 0.5 kg/m3
mass density (342.92 K, 15995 kPa, w1 = 0.4976): 960.3 ± 1.3 kg/m3
mass density (342.92 K, 16002 kPa, w1 = 0.1997): 978.2 ± 0.5 kg/m3
mass density (342.92 K, 16984 kPa, w1 = 0.4976): 960.8 ± 1.3 kg/m3
mass density (342.92 K, 17001 kPa, w1 = 0.1997): 978.6 ± 0.5 kg/m3
mass density (342.92 K, 17995 kPa, w1 = 0.4976): 961.2 ± 1.3 kg/m3
mass density (342.92 K, 18002 kPa, w1 = 0.1997): 979 ± 0.5 kg/m3
mass density (342.92 K, 18994 kPa, w1 = 0.4976): 961.7 ± 1.3 kg/m3
mass density (342.92 K, 18999 kPa, w1 = 0.1997): 979.2 ± 0.5 kg/m3
mass density (342.92 K, 19993 kPa, w1 = 0.4976): 962.1 ± 1.3 kg/m3
mass density (342.92 K, 20029 kPa, w1 = 0.1997): 979.8 ± 0.5 kg/m3
mass density (342.92 K, 21004 kPa, w1 = 0.1997): 980.2 ± 0.5 kg/m3
mass density (342.92 K, 21021 kPa, w1 = 0.4976): 962.5 ± 1.3 kg/m3
mass density (342.92 K, 22004 kPa, w1 = 0.1997): 980.6 ± 0.5 kg/m3
mass density (342.92 K, 23001 kPa, w1 = 0.1997): 981 ± 0.5 kg/m3
mass density (342.92 K, 24005 kPa, w1 = 0.1997): 981.5 ± 0.5 kg/m3
mass density (342.93 K, 1004 kPa, w1 = 0.4002): 962.4 ± 0.9 kg/m3
mass density (342.93 K, 2006 kPa, w1 = 0.4002): 962.8 ± 0.9 kg/m3
mass density (342.93 K, 3009 kPa, w1 = 0.4002): 963.3 ± 0.9 kg/m3
mass density (342.93 K, 4013 kPa, w1 = 0.4002): 963.7 ± 0.9 kg/m3
mass density (342.93 K, 4998 kPa, w1 = 0.4002): 964.2 ± 0.9 kg/m3
mass density (342.93 K, 5995 kPa, w1 = 0.4002): 964.6 ± 0.9 kg/m3
mass density (342.93 K, 6996 kPa, w1 = 0.4002): 965 ± 0.9 kg/m3
mass density (342.93 K, 7995 kPa, w1 = 0.4002): 965.5 ± 0.9 kg/m3
mass density (342.93 K, 8994 kPa, w1 = 0.4002): 965.9 ± 0.9 kg/m3
mass density (342.93 K, 10004 kPa, w1 = 0.4002): 966.3 ± 0.9 kg/m3
mass density (342.93 K, 10993 kPa, w1 = 0.4002): 966.8 ± 0.9 kg/m3
mass density (342.93 K, 12000 kPa, w1 = 0.4002): 967.2 ± 0.9 kg/m3
mass density (342.93 K, 12990 kPa, w1 = 0.4002): 967.6 ± 0.9 kg/m3
mass density (342.93 K, 13993 kPa, w1 = 0.4002): 968 ± 0.9 kg/m3
mass density (342.93 K, 14985 kPa, w1 = 0.4002): 968.5 ± 0.9 kg/m3
mass density (342.93 K, 15999 kPa, w1 = 0.4002): 968.9 ± 0.9 kg/m3
mass density (342.93 K, 16987 kPa, w1 = 0.4002): 969.3 ± 0.9 kg/m3
mass density (342.93 K, 17994 kPa, w1 = 0.4002): 969.8 ± 0.9 kg/m3
mass density (342.93 K, 18984 kPa, w1 = 0.4002): 970.2 ± 0.9 kg/m3
mass density (342.93 K, 19987 kPa, w1 = 0.4002): 970.6 ± 0.9 kg/m3
mass density (342.93 K, 20996 kPa, w1 = 0.4002): 971 ± 0.9 kg/m3
mass density (352.84 K, 1007 kPa, w1 = 0.4002): 954.4 ± 0.8 kg/m3
mass density (352.84 K, 2012 kPa, w1 = 0.4002): 954.9 ± 0.8 kg/m3
mass density (352.84 K, 3000 kPa, w1 = 0.4002): 955.3 ± 0.8 kg/m3
mass density (352.84 K, 4011 kPa, w1 = 0.4002): 955.8 ± 0.8 kg/m3
mass density (352.84 K, 5007 kPa, w1 = 0.4002): 956.3 ± 0.9 kg/m3
mass density (352.84 K, 6009 kPa, w1 = 0.4002): 956.7 ± 0.9 kg/m3
mass density (352.84 K, 7008 kPa, w1 = 0.4002): 957.2 ± 0.9 kg/m3
mass density (352.84 K, 8014 kPa, w1 = 0.4002): 957.6 ± 0.9 kg/m3
mass density (352.84 K, 8988 kPa, w1 = 0.4002): 958.1 ± 0.9 kg/m3
mass density (352.84 K, 9986 kPa, w1 = 0.4002): 958.5 ± 0.9 kg/m3
mass density (352.84 K, 11001 kPa, w1 = 0.4002): 959 ± 0.9 kg/m3
mass density (352.84 K, 12004 kPa, w1 = 0.4002): 959.5 ± 0.9 kg/m3
mass density (352.84 K, 12991 kPa, w1 = 0.4002): 959.8 ± 0.9 kg/m3
mass density (352.84 K, 13986 kPa, w1 = 0.4002): 960.3 ± 0.9 kg/m3
mass density (352.84 K, 14991 kPa, w1 = 0.4002): 960.8 ± 0.9 kg/m3
mass density (352.84 K, 15997 kPa, w1 = 0.4002): 961.2 ± 0.9 kg/m3
mass density (352.84 K, 16988 kPa, w1 = 0.4002): 961.6 ± 0.9 kg/m3
mass density (352.84 K, 17995 kPa, w1 = 0.4002): 962 ± 0.9 kg/m3
mass density (352.84 K, 18987 kPa, w1 = 0.4002): 962.5 ± 0.9 kg/m3
mass density (352.84 K, 19995 kPa, w1 = 0.4002): 962.9 ± 0.9 kg/m3
mass density (352.84 K, 20986 kPa, w1 = 0.4002): 963.3 ± 0.9 kg/m3
mass density (352.85 K, 997 kPa, w1 = 0.2821): 961.9 ± 0.6 kg/m3
mass density (352.85 K, 2011 kPa, w1 = 0.2821): 962.4 ± 0.6 kg/m3
mass density (352.85 K, 2994 kPa, w1 = 0.2821): 962.8 ± 0.6 kg/m3
mass density (352.85 K, 4000 kPa, w1 = 0.2821): 963.2 ± 0.6 kg/m3
mass density (352.85 K, 5006 kPa, w1 = 0.2821): 963.7 ± 0.6 kg/m3
mass density (352.85 K, 6000 kPa, w1 = 0.2821): 964.1 ± 0.6 kg/m3
mass density (352.85 K, 6999 kPa, w1 = 0.2821): 964.5 ± 0.6 kg/m3
mass density (352.85 K, 7996 kPa, w1 = 0.2821): 965 ± 0.6 kg/m3
mass density (352.85 K, 8992 kPa, w1 = 0.2821): 965.4 ± 0.6 kg/m3
mass density (352.85 K, 9994 kPa, w1 = 0.2821): 965.8 ± 0.6 kg/m3
mass density (352.85 K, 10987 kPa, w1 = 0.2821): 966.2 ± 0.6 kg/m3
mass density (352.85 K, 12010 kPa, w1 = 0.2821): 966.7 ± 0.6 kg/m3
